Molecular target: T1, IL-17A/A (Homo sapiens, UniProt Q16552)
T1 construct: purchased Genscript Z03228
T1 sequence (Q16552 24-155): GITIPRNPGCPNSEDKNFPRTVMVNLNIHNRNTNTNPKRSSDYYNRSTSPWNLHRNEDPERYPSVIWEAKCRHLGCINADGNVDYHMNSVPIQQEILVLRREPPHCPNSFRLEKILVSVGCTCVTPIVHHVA
Assay: IL-17A/A HEK-Blue Cell Assay
Format: cell-based
Settings: HEK-Blue IL-17A reporter cell line, SEAP readout at A630, 20 hours incubation with IL-17A/A, top concentration 10 uM, 1 uM or 0.3 uM; for IC50: read-out: IL-17A/A inhibition (pIC50) (converted)

Structure (SMILES)	IC50	IL-17A/A inhibition (pIC50)
CCC(=O)N[C@@H](C(=O)N1CCC(O)CC1)[C@@H](C)c1ccc(NC(=O)[C@@H](NC(=O)c2ccnn2CC)[C@H]2CC[C@H](C)CC2)c(F)c1 [Compound 374]	0.01 to 0.1 µM	
CCC(=O)N[C@@H](C(=O)N1CCC(C)CC1)[C@@H](C)c1ccc(NC(=O)[C@@H](NC(=O)c2ccnn2C2CCCC2)[C@H]2CC[C@H](C)CC2)c(F)c1 [Compound 375]	0.01 to 0.1 µM	
CCC(=O)N[C@@H](C(=O)N1CCC(C)(O)CC1)[C@@H](C)c1ccc(NC(=O)[C@@H](NC(=O)C(F)(F)c2nc(C)cs2)[C@H]2CC[C@H](C)CC2)c(F)c1 [Compound 376]	0.01 to 0.1 µM	
CCC(=O)N[C@@H](C(=O)N1CCC(C)(O)CC1)[C@@H](C)c1ccc(NC(=O)[C@@H](NC(=O)c2ccnn2C(C)C)[C@H]2CC[C@H](C)CC2)c(F)c1 [Compound 377]	0.01 to 0.1 µM	
CCC(=O)N[C@@H](C(=O)N1CCC(C)(O)CC1)[C@@H](C)c1ccc(NC(=O)[C@@H](NC(=O)C(F)(F)c2cncs2)[C@H]2CC[C@H](C)CC2)c(F)c1 [Compound 378]	0.01 to 0.1 µM	
C[C@@H](c1ccc(NC(=O)[C@@H](NC(=O)c2ccnn2C2CCCC2)[C@H]2CC[C@H](C)CC2)c(F)c1)[C@@H](NC(=O)C1(F)CC1)C(=O)N1CCOCC1 [Compound 380]	0.01 to 0.1 µM	
CCn1nccc1C(=O)N[C@H](C(=O)Nc1ccc([C@H](C)[C@@H](NC(=O)c2cnns2)C(=O)N2CCOCC2)cc1F)[C@H]1CC[C@H](C)CC1 [Compound 381]	0.01 to 0.1 µM	
CCC(=O)N[C@H](Cc1ccc(NC(=O)[C@@H](NC(=O)c2ccnn2CC)C2CCCCC2)c(F)c1)C(=O)N1CCC(C)(O)CC1 [Compound 382]	0.01 to 0.1 µM	
C[C@@H](c1ccc(NC(=O)[C@@H](NC(=O)C(F)(F)c2cccc(C#N)c2)C2CCCCCC2)c(F)c1)[C@@H](O)C(=O)N1CCN(C)CC1 [Compound 383]	0.01 to 0.1 µM	
CCn1nccc1C(=O)N[C@H](C(=O)Nc1ccc([C@H](C)[C@@H](NC(=O)c2cnns2)C(=O)N2CCN(C)CC2)cc1F)[C@H]1CC[C@H](C)CC1 [Compound 388]	0.01 to 0.1 µM	
CCC(=O)N[C@H](C(=O)N1CCN(C)CC1)[C@H](C)c1ccc(NC(=O)[C@@H](NC(=O)c2ccnn2CC)[C@@H](C)OC2CCCCC2)c(F)c1 [Compound 389]	0.01 to 0.1 µM	
CCC(=O)N[C@@H](C(=O)N1CCN(C)CC1)[C@@H](C)c1ccc(NC(=O)C(NC(=O)c2ccnn2CC)[C@@H](C)C2CCCCC2)c(F)c1 (some centres unmarked) [Compound 390]	< 0.01 µM	
C[C@@H](c1ccc(NC(=O)[C@@H](NC(=O)C(F)(F)c2cccc(C#N)c2)C2CCCCCC2)c(F)c1)[C@@H](NC(=O)c1cnns1)C(=O)N1CCN(C)CC1 [Compound 391]	< 0.01 µM	
CCC(=O)N[C@@H](C(=O)N1CCS(=O)(=O)CC1)[C@@H](C)c1ccc(NC(=O)[C@@H](NC(=O)c2ccnn2CC)[C@H]2CC[C@H](C)CC2)c(F)c1 [Compound 392]	0.01 to 0.1 µM	
CCC(=O)N[C@@H](C(=O)N1CCN(C)CC1)[C@@H](C)c1ccc(NC(=O)C(NC(=O)c2ccnn2C(C)C)C(C)c2ccc(F)cc2)c(F)c1 (some centres unmarked) [Compound 393]	0.01 to 0.1 µM	
CCC(=O)N[C@@H](C(=O)N1CCN(C)CC1)[C@@H](C)c1ccc(NC(=O)C(NC(=O)C(F)(F)c2ccc(OC)nc2)[C@@H](C)C2CCCCC2)c(F)c1 (some centres unmarked) [Compound 394]	< 0.01 µM	

Structure (SMILES)	IC50	IL-17A/A inhibition (pIC50)
CCn1nccc1C(=O)N[C@H](C(=O)Nc1ccc([C@H](C)[C@@H](NC(=O)CC2CC2)C(=O)N2CCN(C)CC2)cc1F)[C@H]1CC[C@H](C)CC1 [Compound 396]	0.01 to 0.1 µM	
CCC(=O)N[C@@H](C(=O)N1CCN(C)CC1)[C@@H](C)c1ccc(NC(=O)[C@@H](NC(=O)c2conc2C2(C)COC2)[C@H]2CC[C@H](C)CC2)c(F)c1 [Compound 397]	0.01 to 0.1 µM	
CC(C)n1nccc1C(=O)N[C@H](C(=O)Nc1ccc([C@H](C)[C@@H](NC(=O)c2ccnn2C2CCC2)C(=O)N2CCN(C)CC2)cc1F)[C@H]1CC[C@H](C)CC1 [Compound 398]	< 0.01 µM	
CC(C)n1nccc1C(=O)N[C@H](C(=O)Nc1ccc([C@H](C)[C@@H](NC(=O)c2ccnn2C2CC2)C(=O)N2CCN(C)CC2)cc1F)[C@H]1CC[C@H](C)CC1 [Compound 399]	< 0.01 µM	
COc1cncc(C(F)(F)C(=O)N[C@H](C(=O)Nc2ccc([C@H](C)[C@@H](NC(=O)c3cnns3)C(=O)N3CCN(C)CC3)cc2F)[C@H]2CC[C@H](C)CC2)c1 [Compound 400]	< 0.01 µM	
CCn1nccc1C(=O)N[C@H](C(=O)Nc1ccc([C@H](C)[C@@H](NC(=O)NC2CC2)C(=O)N2CCN(C)CC2)cc1)C1CCCCC1 [Compound 402]	0.01 to 0.1 µM	
CCn1nccc1C(=O)N[C@H](C(=O)Nc1ccc([C@H](C)[C@@H](NC(=O)NC2CC2)C(=O)N2CCN(C)CC2)cc1F)[C@H]1CC[C@H](C)CC1 [Compound 404]		B (8>B≥7 as B)
CCC(=O)NC(C(=O)N1CCN(C)CC1)C(C)c1ccc(NC(=O)C(NC(=O)C(F)(F)c2cnc(OC)nc2)C2CCC(C)CC2)c(F)c1 (centres unmarked) [Compound 405]	0.01 to 0.1 µM	
CCn1nccc1C(=O)N[C@H](C(=O)Nc1ccc([C@H](C)[C@@H](NC(=O)C2(F)CC2)C(=O)N2CCN(C)CC2)cc1F)[C@H]1CC[C@H](C)CC1 [Compound 406]	0.01 to 0.1 µM	
CCn1cc(C(F)(F)C(=O)N[C@H](C(=O)Nc2ccc([C@H](C)[C@@H](NC(=O)c3cnns3)C(=O)N3CCN(C)CC3)cc2F)[C@H]2CC[C@H](C)CC2)cn1 [Compound 407]	< 0.01 µM	
CCc1nonc1C(=O)N[C@H](C(=O)Nc1ccc([C@H](C)[C@@H](NC(=O)c2cnns2)C(=O)N2CCN(C)CC2)cc1F)[C@H]1CC[C@H](C)CC1 [Compound 408]	< 0.01 µM	
CCc1ccoc1C(=O)N[C@H](C(=O)Nc1ccc([C@H](C)[C@@H](NC(=O)c2cnns2)C(=O)N2CCN(C)CC2)cc1F)[C@H]1CC[C@H](C)CC1 [Compound 409]	0.01 to 0.1 µM	
CCn1ncnc1C(=O)N[C@H](C(=O)Nc1ccc([C@H](C)[C@@H](NC(=O)c2cnns2)C(=O)N2CCN(C)CC2)cc1F)[C@H]1CC[C@H](C)CC1 [Compound 410]	0.01 to 0.1 µM	
CCc1nocc1C(=O)N[C@H](C(=O)Nc1ccc([C@H](C)[C@@H](NC(=O)c2cnns2)C(=O)N2CCN(C)CC2)cc1F)[C@H]1CC[C@H](C)CC1 [Compound 414]	< 0.01 µM	
CCn1nccc1C(=O)N[C@H](C(=O)Nc1ccc([C@H](C)[C@@H](NC(=O)c2ccnn2C2CCOCC2)C(=O)N2CCC(C)(O)CC2)cc1F)[C@H]1CC[C@H](C)CC1 [Compound 417]	< 0.01 µM	

Second part, the compound after the results:

IC50	IL-17A/A inhibition (pIC50)	Structure (SMILES)
0.01 to 0.1 µM		CCC(=O)N[C@@H](C(=O)N1CCN(C)CC1)[C@@H](C)c1ccc(NC(=O)C(NC(=O)C(F)(F)c2cnc(OC)nc2)C2CCCCCC2)c(F)c1 (some centres unmarked) [Compound 418]
0.01 to 0.1 µM		CCC(=O)N[C@@H](C(=O)N1CCN(C)CC1)[C@@H](C)c1ccc(NC(=O)C(NC(=O)C(F)(F)C2CCCCC2)[C@H]2CC[C@H](C)CC2)c(F)c1 (some centres unmarked) [Compound 419]
< 0.01 µM		CCC(=O)N[C@@H](C(=O)N1CCN(C(C)(C)C)CC1)[C@@H](C)c1ccc(NC(=O)[C@@H](NC(=O)c2ccnn2CC)[C@H]2CC[C@H](C)CC2)c(F)c1 [Compound 420]
0.01 to 0.1 µM		CCC(=O)N[C@@H](C(=O)N1CCC(CC(=O)OC(C)(C)C)CC1)[C@@H](C)c1ccc(NC(=O)[C@@H](NC(=O)c2ccnn2CC)[C@H]2CC[C@H](C)CC2)c(F)c1 [Compound 421]
0.01 to 0.1 µM		CCC(=O)N[C@@H](C(=O)N1CCC(CC(=O)O)CC1)[C@@H](C)c1ccc(NC(=O)[C@@H](NC(=O)c2ccnn2CC)[C@H]2CC[C@H](C)CC2)c(F)c1 [Compound 422]
0.01 to 0.1 µM		CCC(=O)N[C@@H](C(=O)N1CCN(CCO)CC1)[C@@H](C)c1ccc(NC(=O)[C@@H](NC(=O)c2ccnn2CC)[C@H]2CC[C@H](C)CC2)c(F)c1 [Compound 423]
	B (8>B≥7 as B)	CCC(=O)N[C@@H](C(=O)N1CCN(C(C)(C)O)CC1)[C@@H](C)c1ccc(NC(=O)[C@@H](NC(=O)c2ccnn2CC)[C@H]2CC[C@H](C)CC2)c(F)c1 [Compound 424]
0.01 to 0.1 µM		CCC(=O)N[C@@H](C(=O)N1C[C@@H](C)N[C@@H](C)C1)[C@@H](C)c1ccc(NC(=O)[C@@H](NC(=O)c2ccnn2CC)[C@H]2CC[C@H](C)CC2)c(F)c1 [Compound 425]
< 0.01 µM		CCC(=O)N[C@@H](C(=O)N1CCN(CC)[C@H](C)C1)[C@@H](C)c1ccc(NC(=O)[C@@H](NC(=O)c2ccnn2CC)[C@H]2CC[C@H](C)CC2)c(F)c1 [Compound 426]
< 0.01 µM		CCC(=O)N[C@@H](C(=O)N1CCN(CC)[C@@H](C)C1)[C@@H](C)c1ccc(NC(=O)[C@@H](NC(=O)c2ccnn2CC)[C@H]2CC[C@H](C)CC2)c(F)c1 [Compound 427]
0.01 to 0.1 µM		CCn1nccc1C(=O)N[C@H](C(=O)Nc1ccc([C@H](C)[C@@H](NC(=O)c2cnns2)C(=O)N2CCN(CCO)CC2)cc1F)[C@H]1CC[C@H](C)CC1 [Compound 428]
< 0.01 µM		CCC(=O)N[C@@H](C(=O)N1CCN(C)C[C@@H]1C)[C@@H](C)c1ccc(NC(=O)[C@@H](NC(=O)c2ccnn2CC)[C@H]2CC[C@H](C)CC2)c(F)c1 [Compound 429]
< 0.01 µM		CCC(=O)N[C@@H](C(=O)N1CCN(C)C[C@H]1C)[C@@H](C)c1ccc(NC(=O)[C@@H](NC(=O)c2ccnn2CC)[C@H]2CC[C@H](C)CC2)c(F)c1 [Compound 430]
< 0.01 µM		CCC(=O)N[C@@H](C(=O)N1CCN(C)CC1(C)C)[C@@H](C)c1ccc(NC(=O)[C@@H](NC(=O)c2ccnn2CC)[C@H]2CC[C@H](C)CC2)c(F)c1 [Compound 431]
< 0.01 µM		CCn1nccc1C(=O)N[C@H](C(=O)Nc1ccc([C@H](C)[C@@H](NC(=O)C(C)C2CC2)C(=O)N2CCN(C)C(C)(C)C2)cc1F)[C@H]1CC[C@H](C)CC1 (some centres unmarked) [Compound 432]
< 0.01 µM		CCn1nccc1C(=O)N[C@H](C(=O)Nc1ccc([C@H](C)[C@@H](NC(=O)C(C)C2CC2)C(=O)N2CCN(C)[C@@H](C)C2)cc1F)[C@H]1CC[C@H](C)CC1 (some centres unmarked) [Compound 433]

Reference: patent US12421212B2, “Substituted benzenecarboxamides as IL-17A modulators” (DiCE Alpha, Inc., priority 2019, dated 2025)
